These are literature values, as cited in patent US8993576B2, “6-(1H-indol-4-yl)-4-(5-{[4-1-methylethyl)-1-piperazinyl]methyl}-1,3-oxazol-2-yl)-1H-indazole hemi succinate salt, polymorphs and pharmaceutical compositions thereof” (Glaxo Group Limited, priority 2010, dated 2015).

Where two headings read alike, the source gives them in different places.

Data set [1] relates to Class I PI3-kinases.
Data set [2] concerns the target CK2 protein kinase (Homo sapiens, UniProt P68400). Particulars: read-out: IC50 on CK2 protein kinase.
The subject of data set [3] is phospholipases.
Data set [4] concerns neutrophils.
The subject of data set [5] is neutrophils. The source holds these as a separate data set.
The subject of data set [6] is neutrophils. Particulars: treatment of neutrophils; Thelen et al. 1994.

CK2 protein kinase, sequence (P68400 whole entry): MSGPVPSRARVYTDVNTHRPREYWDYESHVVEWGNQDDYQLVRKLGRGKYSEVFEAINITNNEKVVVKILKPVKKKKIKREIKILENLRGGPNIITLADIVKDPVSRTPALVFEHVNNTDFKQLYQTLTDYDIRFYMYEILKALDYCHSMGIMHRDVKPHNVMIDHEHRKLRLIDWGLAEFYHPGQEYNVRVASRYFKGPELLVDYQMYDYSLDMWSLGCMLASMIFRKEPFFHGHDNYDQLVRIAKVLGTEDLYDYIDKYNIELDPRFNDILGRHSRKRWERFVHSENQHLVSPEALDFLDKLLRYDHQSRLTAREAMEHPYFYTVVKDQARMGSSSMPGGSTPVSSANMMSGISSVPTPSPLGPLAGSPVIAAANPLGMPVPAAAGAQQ

For `O=c1cc(N2CCOCC2)oc2c(-c3ccccc3)cccc12` [LY294002], the IC50 was 15 to 20 µM in data set [1] (each of the Class I PI3-kinases, Fruman et al. 1998, read-out: IC50 values against each of these PI3-kinases) and 5 to 10 µM in data set [2]. In addition, the “inhibitory activity on phospholipases” value in data set [3] is given as “some inhibitory activity”. Also, the “effect on neutrophil migration” value in data set [4] is reported as “block”. Further, the “effect on superoxide release” value in data set [5] is on record as “block”.
On to `COC[C@H]1OC(=O)c2coc3c2[C@@]1(C)C1=C(C3=O)[C@@H]2CCC(=O)[C@@]2(C)C[C@H]1OC(C)=O` [wortmannin], for which, in data set [1] (each of the four Class I PI3-kinases, read-out: IC50 values against each of the various Class I PI3-kinases), the IC50 is 0.001 to 0.01 µM. Moreover, the “effect on fMLP-induced respiratory burst response” value in data set [6] is given as “prevents”. Moreover, the “effect on neutrophil migration” value in data set [4] is listed as “block”. Also, the “effect on superoxide release” value in data set [5] is reported as “block”.

Usually IC50 stands for the concentration that gives 50% inhibition.
